Source: EP0011845A2, “Antiseborrhoeic hair treatment composition” (Henkel Kommanditgesellschaft auf Aktien, priority 1978, dated 1980)

Tested on: Meerschweinchen
Assay: Anti-dandruff test: oleic-acid-induced scaling and skin thickening on shaved guinea pig back
Format: in vivo
Details: 5 % test substance with 5 % Ölsäure in 70 % ethanol, topical on the back, 60 min exposure, 4 consecutive days, evaluated on day 7, inhibition vs skin treated with oleic acid only; for Hautdickenmessung Hemmung %: skin fold thickness by Cutimeter nach Götze; for Hautschuppenmessung Hemmung %: visual scaling score on scale 0-4
From the text: Die Prüfung auf Antischuppenwirkung wurde in folgender Weise durchgeführt, wobei B) als mit Natronlauge auf einen pH-Wert von 6 neutralisiertes Produkt zum Einsatz gelangte:
Die Prüfsubstanzen wurden in 5 %iger Konzentration zusammen mit 5 % Ölsäure in 70 %igem Ethanol gelöst und in alternierender Reihenfolge und in rotierendem Schema auf den Rücken junger, geschorener weiblicher Meerschweinchen im Gewicht von 600 ± 50 g aufgetragen. Die Einwirkungszeit der Substanzen wurde dabei auf 60 Minuten begrenzt, da diese Zeit ausreichte, um eine Wirkung zu erzielen. Anschließend wurden die Tiere mit warmem Wasser 30 Sekunden lang abgeduscht. Die Reihenfolge der Tiere bei der Applikation wechselte dabei täglich, um Differenzen in der Einwirkungszeit zwischen dem ersten und letzten Tier der Gruppe auf ein Minimum zu begrenzen. Diese Behandlung geschah an vier aufeinanderfolgenden Tagen, darauf folgte eine Ruhezeit (Entwicklungszeit von drei Tagen). Am siebenten Tag wurde ausgewertet, und zwar a) kutimetrisch auf Hautfaltendicke instrumentell mit dem Cutimeter nach Götze und b) visuell auf Schuppenbildung bzw. Hemmung nach einer 4-Punkte-Skala folgender Definition: • 0 = keine Schuppen • 1 = leichte Schuppen • 2 = kräftige Schuppen • 3 = starke Schuppen mit Rötung • 4 = Krusten mit Aufrichten der Haare.
Die Versuchsgruppen bestanden aus jeweils 6 Tieren. Die Kollektive wurden mathematisch auf Homogenität geprüft und nach Eliminierung signifikant abweichender Tiere wurden Mittelwert und Streuung für jede Substanz berechnet. Diese wurden in Beziehung gesetzt zu den Werten der nur mit 5 % Ölsäure in 70 %igem Ethanol behandelten Haut und daraus die Signifikanz der Hemmwirkung bestimmt. Das Ergebnis der Prüfung ist der nachstehenden Tabelle 1 zu entnehmen.

| Structure (SMILES) | Hautdickenmessung Hemmung % [%] | Hautschuppenmessung Hemmung % [%] |
| --- | --- | --- |
| COc1cc(C(=O)NCCCCCC(=O)O)cc(OC)c1OC [Wirkstoff B, N-(3,4,5-Trimethoxy-benzoyl)-6-amino-carbonsäure] | 10 | 50 |
| CCOC(=O)CCCCCNC(=O)c1cc(OC)c(OC)c(OC)c1 [Wirkstoff A, N-(3,4,5-Trimethoxy-benzoyl)-6-amino-capronsäure-ethylester] | 15 | 100 |
